Laboratory results published in patent publication US5482954A, “Signal transduction inhibitor triazole and diazole compounds” (priority 1994, dated 1996).

Key:
[1] = test system: 5R cells; assay: Oral treatment, prevention of experimental metastasis; format: in vivo, nude mice
Description: Finally, compound 1 was tested for efficacy in prevention of the formation and growth of experimental metastases. Oral administration of compound 1 or PEG-400 vehicle to nude mice was carried out for 5 days. On day 6, untreated 5R cells (10^4) were introduced into the animals by tail vein inoculation. The animals were then randomized into four groups. Two groups of animals which had received only vehicle were subsequently treated with either vehicle (PEG/PEG) or 1 (PEG/1). The other two groups which had been treated with 1 were similarly treated post-inoculation with either vehicle (1/PEG) or 1 (1/1). Treatments were continued for 10 d, after which the lungs were removed and the pulmonary metastases were counted. Histologic confirmation of the fibrosarcoma due to the 5R cells was obtained. […] No toxicity was noted during treatment or at necropsy.

[2] = test system: 5R cells; assay: [3H]thymidine incorporation; format: cell-based, rat; settings: 0-10 μg/mL, 24 hr
Description: (§1) Proliferation: Two independent methods were used to determine the effect of various compounds on cellular proliferation. The first method utilized [^3 H]thymidine labelling and was performed using A2058, 5R, OVCAR3, and MDA-231 cells. Because the potential effect of compound 1 on thymidine metabolism was unknown, a clonogenic assay was also used. This assay utilized crystal violet nuclear staining.
For the thymidine incorporation assay, an initial aliquot of 15,000 cells was plated in 96 well plates. The cells were grown to subconfluence, serum-starved, then fed with serum-containing media to which incremental doses of compound 1 (0-10 μg/mL) were added. After 24 hr, the cells were pulsed with [^3 H]thymidine (0.5 μCi/well) for 2 hr. Trichloroacetic acid was added to precipitate […] [^3 H]thymidine. After removal, ice cold ethanol/diethyl ether was added to precipitate cellular nucleic acids. The residue was solubilized with 0.2M NaOH and [^3 H]thymidine incorporation was determined by liquid scintillation counting. Inhibition of thymidine uptake was calculated as a percent of untreated control cell incorporation of labelled thymidine. As FIG. 4 indicates, de novo DNA synthesis was inhibited in all of the tumor cell lines. Maximal inhibition (80%) was found with the 5R cells.

[3] = test system: CHOm5 cells; assay: Carbachol-stimulated generation of inositol phosphates; format: cell-based, Chinese hamster; settings: concentrations above 10 μM
Description: This example illustrates the effect of compound 1 on the generation and release of phosphatidyl inositol from either A2058 cells (stimulated with autocrine motility factor) or CHOm5 cells (stimulated with carbachol).
A second assay utilized CHO cells which were transfected with and stably expressed the m5 subtype of the muscarinic acetylcholine receptor.
CHOm5 cells were incubated with [^3 H]inositol (0.5 μCi/well) for 18 to 24 hr. Before the addition of test compounds, the cells were washed twice with 250 μL of serum-free media supplemented with 20 mM HEPES and 10 mM lithium chloride. The test compounds were added in a final volume of 250 μL and the reaction was allowed to proceed for 15 min at 37° C. The reaction was stopped by the addition of 250 μL of an ice-cold solution containing 1M KOH, 18 mM Na2 B4 O7, 3.8 mM EDTA and 7.6 mM NaOH. The stop solution was neutralized immediately with the addition of 250 μL of a solution containing 7.5% HCl. Released inositol phosphates were separated by anion exchange chromatography.

[4] = test system: HT-29 human colon cancer cells; assay: Experimental pulmonary metastasis, tumor cells pretreated in vitro; format: in vivo, nude mice; settings: cells treated 10 μg/mL, 24 hr; day 28
Description: Compound 1 was also tested for efficacy against HT-29 human colon cancer cells. HT-29 tumor cells were incubated with compound 1, 10 μg/mL, or DMSO vehicle (0.05%) for 24 hr. After harvesting and washing, one million cells were injected into the lateral tail vein of nude mice. Animals were humanely sacrificed on day 28, the lungs were inflated and fixed, and the number of pulmonary metastases were then counted. Observations on the size of the metastases were also made.

[5] = test system: solid tumor metastasis; assay: Phase I clinical study, tumor response; format: in vivo, human
Source text: This example illustrates the effect of compound 1 on tumor growth and metastasis when administered orally to seven patients in an FDA approved phase I clinical study.
Seven patients with solid tumor metastasis are undergoing treatment via oral administration of compound 1 under the FDA approved phase I clinical study. Table J provides data on the patients' response to this treatment. PT# is patient number. Response is the sum of the products of bidirectional measurements. No measurement means that while the disease was evaluable, it was not measureable. The concentration of the drug in the blood of the patients is well within the range which inhibits signal transduction in vitro and which inhibits tumor growth in vitro and in animals.

[6] = test system: OVCAR3 cells; assay: Type IV collagen-stimulated motility; format: cell-based, human; settings: data not shown
[7] = test system: 5R cells; assay: Clonogenic (crystal violet) proliferation assay; format: cell-based, rat; settings: 0-10 μg/mL, 96 hr
Description: as §1
For the clonogenic assay, aliquots of 50,000 cells per well (24 well plates) were grown under standard tissue culture conditions in the presence of increasing doses or test compound (0-10 μg/mL) or vehicle control. After 96 hr, the cells were gently washed with PBS, fixed, and stained with 0.5% crystal violet nuclear stain in 20% methanol. Excess stain was removed with tap water and bound stain was eluted with an equal volume solution of 01N sodium citrate (pH 4.2) and absolute ethanol. Optical density (O.D.) of eluted crystal violet stain was determined at 540 nm. The results of dose-dependent inhibition of tumor cell proliferation by compound 1 are shown in FIG. 5, in which the data are expressed as percent of untreated control cell proliferation for each cell type. The degree of inhibition varied with the cell type and was maximal (76%) for the A2058 cell line.

[8] = test system: OVCAR3 human ovarian cancer; assay: Survival after intraperitoneal treatment; format: in vivo, nude mice; settings: 50 mg/kg/d ip
Source text: This example illustrates the effect of compound 1 on the survival of nude mice. The mice had been intraperitoneally injected with OVCAR3 human ovarian cancer cells followed, after three weeks, by intraperitoneal injection of 1.
The OVCAR3 human ovarian cancer animal model accurately approximates the clinical presentation of stage III-IV ovarian cancer of peritoneal carcinomatosis. Untreated, OVCAR3 tumor is lethal to nude mice.
Six-week-old nude mice were inoculated intraperitoneally with 3.4×10^7 OVCAR3 human ovarian cancer cells. After a three week period, all animals had grossly distended abdomens due to OVCAR3 ascites. Two groups of animals (four each) were paired for relative severity of ascites and treatment was initiated. Compound 1, 50 mg/kg/d in 60% DMSO (200 μL aliquot) or a vehicle alone, was administered via daily intraperitoneal injection. Overall survival from start of treatment was the study endpoint. Relative survival improvement was calculated as mean treatment group survival divided by mean control group survival.

[9] = patient 1, melanoma, 100 mg/m^2 qod
[10] = patient 2, colon, 100 mg/m^2 qd
[11] = patient 4, ovary, 100 mg/m^2 qd

`NC(=O)c1nnn(Cc2cc(Cl)c(C(=O)c3ccc(Cl)cc3)c(Cl)c2)c1N` [Compound 1] was tested. Which toxicity ([1]; during treatment or at necropsy) did it give?
Its toxicity is “No toxicity”.

And the metastatic colonization ([1]; given prior to tumor cell injection)?
Its metastatic colonization is “prevented metastatic colonization as effectively as when 1 was administered only after tumor cell inoculation or when given continuously”.

And the “number of pulmonary metastases” value ([1]; treatment prior to, post, or prior to and post inoculation)?
Its value is “statistically significantly inhibited”.

And the “maximal inhibition of de novo DNA synthesis ([3H]thymidine incorporation)” value [2]?
The value was 80%.

What about the “inhibition of carbachol-stimulated generation of inositol phosphates” value [3] of the same molecule?
Its value is “partially inhibited”.

What about the “inhibition of pulmonary colonization” value [4] of the same molecule?
The value was 96%.

What about the “size of pulmonary metastases” value [4] of the same molecule?
The value was “marked reduction in size”.

What about the RESPONSE [5, 9] of the same molecule?
Its RESPONSE is “Stable”.

And the “RESPONSE (sum of products of bidirectional measurements)” value [5, 9]?
Its value is “+8%”.

And the “inhibition of growth rate (cm^2 /day)” value ([5]; patient 1, metastasis lesion #1, X-ray)?
Its value is 79%.

And the “inhibition of growth rate (cm^2 /day)” value ([5]; patient 1, metastasis lesion #2, X-ray)?
Its value is 59%.

What about the “suppression and regression of colon cancer metastases” value ([5]; patient 2) of the same molecule?
The value was “suppression and regression of 3 of 3 colon cancer metastases”.

What about the RESPONSE [5, 10] of the same molecule?
The RESPONSE was “Stable”.

And the “RESPONSE (sum of products of bidirectional measurements)” value [5, 10]?
Its value is -22%.

And the RESPONSE ([5]; patient 3, colon, 100 mg/m^2 qd)?
The RESPONSE was “Stable”.

And the RESPONSE [5, 11]?
Its RESPONSE is “Stable”.

And the “RESPONSE (sum of products of bidirectional measurements)” value [5, 11]?
The value was -21%.

What about the RESPONSE ([5]; patient 5, lung, 200 mg/m^2 qod) of the same molecule?
The RESPONSE was “Stable”.

And the RESPONSE ([5]; patient 6, carcinoid, 200 mg/m^2 qod)?
The RESPONSE was “Stable”.

What about the RESPONSE ([5]; patient 7, colon, 200 mg/m^2 qod) of the same molecule?
Its RESPONSE is “Progres-”.

And the “motility due to type IV collagen stimulation” value [6]?
Its value is “inhibited motility”.

And the “inhibition of tumor cell proliferation” value [7]?
The value was “dose dependent inhibition of tumor cell proliferation”.

What about the “increase of overall survival” value [8] of the same molecule?
The value was 220%.

What about the “overall survival from start of treatment” value ([8]; control 7.25±4.4 days) of the same molecule?
Its value is 16.0 ± 2.5 days.
